Earlier results on one molecule are cited in US20240108682A1, “COMPOSITIONS AND METHODS FOR INCREASING GLUTATHIONE LEVELS” (Lile Method Research, LLC, priority 2022, published 2024).

The conditions of the series: Lu SC, Curr Top Cell Regul 36:95-116 (2000).

Take `N[C@@H](CCC(=O)N[C@@H](CS)C(=O)NCC(=O)O)C(=O)O` [glutathione, L-γ-glutamyl-L-cysteinylglycine]: the “half-life of glutathione in the blood” value is listed as “seconds to minutes”.
